Results: ChEMBL document CHEMBL1201862, “PubChem BioAssay data set” (2004)
Activity calls are given as the source filed them.

Assays:
[1] = target: T1, Sentrin-specific protease 6 (Homo sapiens, UniProt Q9GZR1); type: functional;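 also: Luminescence-based dose-response confirmatory assay of SENP6 inhibition, following up an ultra-high-throughput screen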
T1 sequence (Q9GZR1 whole entry): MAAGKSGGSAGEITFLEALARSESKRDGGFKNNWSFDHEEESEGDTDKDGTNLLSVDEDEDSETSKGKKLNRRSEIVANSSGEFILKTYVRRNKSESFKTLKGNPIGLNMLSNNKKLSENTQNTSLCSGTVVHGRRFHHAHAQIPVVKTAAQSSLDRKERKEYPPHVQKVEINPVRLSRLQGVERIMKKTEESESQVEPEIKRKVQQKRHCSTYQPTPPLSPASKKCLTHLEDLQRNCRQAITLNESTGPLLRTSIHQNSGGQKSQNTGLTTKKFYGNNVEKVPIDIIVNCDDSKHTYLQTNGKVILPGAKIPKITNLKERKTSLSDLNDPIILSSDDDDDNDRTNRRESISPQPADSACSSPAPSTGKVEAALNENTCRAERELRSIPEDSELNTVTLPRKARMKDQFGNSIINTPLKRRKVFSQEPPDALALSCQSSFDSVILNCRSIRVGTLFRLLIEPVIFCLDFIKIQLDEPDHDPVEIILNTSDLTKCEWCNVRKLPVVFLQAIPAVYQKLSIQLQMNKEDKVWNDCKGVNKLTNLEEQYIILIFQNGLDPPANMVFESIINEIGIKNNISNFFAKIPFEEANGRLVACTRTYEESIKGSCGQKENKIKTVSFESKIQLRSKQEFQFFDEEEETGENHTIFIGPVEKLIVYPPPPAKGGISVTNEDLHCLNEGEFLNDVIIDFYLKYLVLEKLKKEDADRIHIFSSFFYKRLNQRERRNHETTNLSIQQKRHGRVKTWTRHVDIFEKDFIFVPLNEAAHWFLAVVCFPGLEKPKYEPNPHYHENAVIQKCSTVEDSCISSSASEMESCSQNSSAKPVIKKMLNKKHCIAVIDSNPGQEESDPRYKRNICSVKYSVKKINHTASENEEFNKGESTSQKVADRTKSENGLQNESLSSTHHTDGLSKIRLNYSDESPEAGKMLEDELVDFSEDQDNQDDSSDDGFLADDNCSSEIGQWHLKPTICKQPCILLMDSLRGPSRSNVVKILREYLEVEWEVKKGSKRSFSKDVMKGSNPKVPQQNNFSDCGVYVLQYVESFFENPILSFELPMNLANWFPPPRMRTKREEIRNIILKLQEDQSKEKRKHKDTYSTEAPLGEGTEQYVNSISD

Caspase-3 [2] = target: T2, Caspase-3 (Homo sapiens, UniProt P42574); type: functional;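 also: Dose-response selectivity test against caspase-3 for candidate inhibitors of sentrin-specific proteases (SENPs)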
T2 sequence (P42574 whole entry): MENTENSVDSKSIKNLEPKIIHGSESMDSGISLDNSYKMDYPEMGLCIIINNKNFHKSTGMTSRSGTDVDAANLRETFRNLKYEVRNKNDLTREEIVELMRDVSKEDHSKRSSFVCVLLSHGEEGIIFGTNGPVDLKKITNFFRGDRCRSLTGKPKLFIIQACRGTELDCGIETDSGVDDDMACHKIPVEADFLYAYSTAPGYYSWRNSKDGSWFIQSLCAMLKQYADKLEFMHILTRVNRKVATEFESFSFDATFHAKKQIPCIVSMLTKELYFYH

[3] = target: T3, Sentrin-specific protease 8 (Homo sapiens, UniProt Q96LD8); type: functional;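 also: luminescence read-out of SENP8 inhibition, dose-response confirmation following an ultra-high-throughput screen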
T3 sequence (Q96LD8 whole entry): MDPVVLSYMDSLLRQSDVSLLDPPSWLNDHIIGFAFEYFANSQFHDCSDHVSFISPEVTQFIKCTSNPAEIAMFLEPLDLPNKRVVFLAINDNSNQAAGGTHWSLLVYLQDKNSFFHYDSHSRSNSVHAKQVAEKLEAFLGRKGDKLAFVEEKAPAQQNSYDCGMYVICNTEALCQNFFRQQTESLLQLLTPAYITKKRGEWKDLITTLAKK

[4] = target: T4, Corticotropin-releasing factor receptor 2/Corticotropin-releasing factor-binding protein (Homo sapiens, UniProt P24387+Q13324); assay: activators of CRF receptor 2 with binding protein – uHTS hits, confirmation (AID 602473); type: functional; settings: read-out: EC50_Mean
T4 sequence (Q13324 whole entry): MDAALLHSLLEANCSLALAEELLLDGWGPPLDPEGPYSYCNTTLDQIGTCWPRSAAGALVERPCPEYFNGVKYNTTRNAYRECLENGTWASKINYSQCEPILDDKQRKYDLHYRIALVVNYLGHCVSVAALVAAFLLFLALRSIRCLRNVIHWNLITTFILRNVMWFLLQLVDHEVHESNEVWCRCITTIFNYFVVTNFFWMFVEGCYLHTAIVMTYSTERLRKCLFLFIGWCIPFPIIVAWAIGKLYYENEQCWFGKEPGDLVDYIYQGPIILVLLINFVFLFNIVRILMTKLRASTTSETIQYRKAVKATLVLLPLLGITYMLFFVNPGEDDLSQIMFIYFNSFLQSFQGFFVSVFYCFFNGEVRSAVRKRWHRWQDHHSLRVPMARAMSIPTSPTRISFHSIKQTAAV
T4 sequence (P24387 whole entry): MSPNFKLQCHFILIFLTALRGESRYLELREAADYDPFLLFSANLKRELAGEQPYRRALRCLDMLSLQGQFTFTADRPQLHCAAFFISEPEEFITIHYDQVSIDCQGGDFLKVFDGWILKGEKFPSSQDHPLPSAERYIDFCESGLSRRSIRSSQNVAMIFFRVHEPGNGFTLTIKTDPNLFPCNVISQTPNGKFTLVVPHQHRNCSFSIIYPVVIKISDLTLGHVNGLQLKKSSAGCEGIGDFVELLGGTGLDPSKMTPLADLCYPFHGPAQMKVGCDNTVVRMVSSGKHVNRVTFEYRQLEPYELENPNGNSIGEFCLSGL

[5] = target: ATP-dependent molecular chaperone HSP82 (Candida albicans (strain WO-1) (Yeast), UniProt C4YTQ8); assay: loss of DOC-induced GRE-beta-galactosidase reporter signal, dose response, Hsp90 inhibitor project, S. cerevisiae, luminescence (AID 2400); type: functional, cell-based;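 also: beta-galactosidase luminescence from glucocorticoid response element reporter as proxy for Hsp90 function; inhibitor potency where signal loss means Hsp90 inhibition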
[6] = target: T4, Corticotropin-releasing factor receptor 2/Corticotropin-releasing factor-binding protein; assay: Dose Response confirmation of uHTS hits for small molecule antagonists of the CRF-binding protein and CRF-R2 receptor complex.; type: functional; settings: read-out: IC50_Mean
[7] = C. albicans growth with fluconazole, confirmation, fluorescence, retest (AID 2467); type: functional, cell-based
[8] = target: T5, Serine/threonine-protein phosphatase (Candida dubliniensis (strain CD36 / CBS 7987 / NCPF 3949 / NRRLY-17841) (Yeast), UniProt B9W6M3); assay: calcineurin pathway inhibitors in yeast reporter, dose response, S. cerevisiae, CDRE-lacZ, luminescence, secondary (AID 2388); type: functional, cell-based;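 also: yeast reporter cells carrying a calcineurin-responsive lacZ construct stimulated with calcium chloride; luminescent beta-galactosidase reporter signal in whole cells rather than isolated phosphatase activity; potency for inhibition where a drop in reporter signal means calcineurin blockade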
T5 sequence (B9W6M3 whole entry): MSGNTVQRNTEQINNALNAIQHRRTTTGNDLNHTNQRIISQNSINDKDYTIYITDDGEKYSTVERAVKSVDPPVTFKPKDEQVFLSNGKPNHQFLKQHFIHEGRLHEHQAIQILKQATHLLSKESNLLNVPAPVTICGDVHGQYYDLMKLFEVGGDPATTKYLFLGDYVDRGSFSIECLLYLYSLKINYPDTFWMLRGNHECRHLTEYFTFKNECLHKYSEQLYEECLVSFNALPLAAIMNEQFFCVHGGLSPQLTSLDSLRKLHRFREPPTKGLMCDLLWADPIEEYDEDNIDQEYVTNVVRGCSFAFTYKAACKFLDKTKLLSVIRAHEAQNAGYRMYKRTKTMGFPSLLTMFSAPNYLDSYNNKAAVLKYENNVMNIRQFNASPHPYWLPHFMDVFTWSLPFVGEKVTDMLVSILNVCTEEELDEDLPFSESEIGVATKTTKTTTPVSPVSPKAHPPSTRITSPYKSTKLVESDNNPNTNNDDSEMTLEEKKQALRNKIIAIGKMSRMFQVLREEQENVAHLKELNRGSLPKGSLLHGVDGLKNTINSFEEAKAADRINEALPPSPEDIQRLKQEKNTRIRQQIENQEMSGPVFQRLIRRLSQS

[9] = NIH-3T3 fibroblast cytotoxicity, dose response, cytotoxicity control, cell-based, fluorescence, Alamar Blue, secondary assay (AID 2327); type: functional;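 also: NIH-3T3 mouse fibroblasts cultured with fluconazole at 8 µg/mL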
[10] = target: Peroxisome proliferator-activated receptor gamma/Nuclear receptor coactivator 1 (Homo sapiens, UniProt P37231); assay: TR-FRET dose response biochemical High Throughput Screening assay for agonists of the steroid receptor coactivator 1 (SRC-1) recruitment by the peroxisome proliferator-activated receptor gamma (PPAR gamma): non-selective agonists. [Related pubchem assays (depositor defined):AID1300, AID1808, AID504735, AID631]; type: protein assay
Protein Wnt-3a = Protein Wnt-3a (Mus musculus, UniProt P27467); assay: Wnt3a-driven reporter signaling inhibition, dose response, selectivity assay for Gli-SUFU antagonist project, Wnt-LIGHT cells, luminescence (AID 651570); type: functional; settings: read-out: IC50_Mean;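 also: Wnt-LIGHT reporter cells stimulated with conditioned medium from Wnt3a-producing cells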
[11] = target: Peroxisome proliferator-activated receptor gamma/Nuclear receptor coactivator 3 (Homo sapiens, UniProt P37231); assay: TR-FRET dose response biochemical High Throughput Screening assay for agonists of the steroid receptor coactivator 3 (SRC-3) recruitment by the peroxisome proliferator-activated receptor gamma (PPAR gamma): non-selective agonists. [Related pubchem assays: 1301 (Confirmation screen.), 1048 (Primary screen.)]; type: functional
[12] = target: Peroxisome proliferator-activated receptor gamma/Nuclear receptor coactivator 2 (Homo sapiens, UniProt P37231); assay: TR-FRET dose response biochemical High Throughput Screening assay for agonists of the steroid receptor coactivator 2 (SRC-2) recruitment by the peroxisome proliferator-activated receptor gamma (PPAR gamma): non-selective agonists. [Related pubchem assays: 1297, 1032 ]; type: functional
cells [13] = type: functional, cell-based
[14] = target: T3, Sentrin-specific protease 8; assay: SENP8 protease inhibitors, SAR follow-up, biochemical, luminescence, set 2 (AID 588601); type: functional
[15] = target: T1, Sentrin-specific protease 6; assay: SENP6 protease inhibitors, SAR follow-up, biochemical, luminescence, set 2 (AID 588598); type: functional
[16] = target: T6, Sentrin-specific protease 7 (Homo sapiens, UniProt Q9BQF6); assay: SENP7 protease inhibitors, SAR follow-up, biochemical, luminescence, set 2 (AID 588600); type: functional
T6 sequence (Q9BQF6 whole entry): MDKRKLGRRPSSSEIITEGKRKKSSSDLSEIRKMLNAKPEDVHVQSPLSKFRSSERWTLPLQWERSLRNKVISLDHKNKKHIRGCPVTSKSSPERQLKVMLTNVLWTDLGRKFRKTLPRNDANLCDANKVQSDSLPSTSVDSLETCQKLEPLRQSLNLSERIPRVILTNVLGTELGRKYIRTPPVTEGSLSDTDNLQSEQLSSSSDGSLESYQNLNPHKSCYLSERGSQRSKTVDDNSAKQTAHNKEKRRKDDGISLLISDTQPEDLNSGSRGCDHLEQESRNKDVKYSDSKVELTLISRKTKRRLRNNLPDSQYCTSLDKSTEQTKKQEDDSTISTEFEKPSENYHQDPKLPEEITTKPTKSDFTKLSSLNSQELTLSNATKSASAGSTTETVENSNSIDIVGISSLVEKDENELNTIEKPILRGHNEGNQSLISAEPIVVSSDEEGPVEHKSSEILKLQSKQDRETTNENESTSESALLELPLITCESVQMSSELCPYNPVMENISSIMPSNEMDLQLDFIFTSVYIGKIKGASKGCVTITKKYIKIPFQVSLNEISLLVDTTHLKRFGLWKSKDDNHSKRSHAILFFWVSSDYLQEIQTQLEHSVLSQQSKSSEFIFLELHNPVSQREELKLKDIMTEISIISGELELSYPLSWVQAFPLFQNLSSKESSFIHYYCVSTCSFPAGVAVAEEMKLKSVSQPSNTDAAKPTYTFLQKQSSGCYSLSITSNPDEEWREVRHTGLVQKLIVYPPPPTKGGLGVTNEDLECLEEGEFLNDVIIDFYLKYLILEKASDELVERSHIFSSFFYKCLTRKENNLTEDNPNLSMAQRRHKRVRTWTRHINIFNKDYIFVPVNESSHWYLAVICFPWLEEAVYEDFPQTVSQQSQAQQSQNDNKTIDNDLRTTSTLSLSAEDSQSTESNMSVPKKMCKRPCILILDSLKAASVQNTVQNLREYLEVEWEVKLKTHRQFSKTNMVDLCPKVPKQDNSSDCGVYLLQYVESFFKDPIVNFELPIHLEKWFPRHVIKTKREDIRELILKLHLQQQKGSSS

Caspase-3 [17] = target: T2, Caspase-3; assay: caspase-3 inhibitors as off-family protease, SAR follow-up, selectivity assay for SENP protease inhibitor project, biochemical, luminescence, set 2 (AID 588599); type: functional
cells [18] = type: functional, cell-based; remark: listed apart in the source
H9c2 = assay: cells; type: functional, cell-based; settings: Rattus norvegicus, H9c2, Myocardium;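 also: confirmatory concentration-response retest of ultra-high-throughput screening hits for modulation of myocardial damage; cell death induced by hydrogen peroxide oxidative stress; compound pretreatment for 60 min then peroxide exposure for 2 h; potency is for protecting the cells against peroxide damage rather than for killing them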
Melanocortin receptor 4 = Melanocortin receptor 4 (Homo sapiens, UniProt P32245); type: functional, cell-based;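 also: Cell-based assay with luminescence read-out, confirmatory dose-response testing for agonist activity of biased ligands at MC4R; human U2OS cells with tagged receptor and beta-arrestin; potency of agonists that increase receptor coupling to beta-arrestin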
Chain of Melanocortin receptor 4 (P32245 whole entry): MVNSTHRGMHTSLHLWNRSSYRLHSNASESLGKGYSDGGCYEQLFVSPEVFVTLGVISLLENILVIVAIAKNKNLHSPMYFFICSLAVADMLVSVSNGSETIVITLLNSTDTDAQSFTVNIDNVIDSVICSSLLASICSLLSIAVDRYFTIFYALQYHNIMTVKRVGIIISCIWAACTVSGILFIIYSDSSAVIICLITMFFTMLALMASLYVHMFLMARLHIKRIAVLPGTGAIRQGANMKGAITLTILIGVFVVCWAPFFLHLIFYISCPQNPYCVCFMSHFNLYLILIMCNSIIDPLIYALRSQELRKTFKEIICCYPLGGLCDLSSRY

Chain of Protein Wnt-3a (P27467 whole entry): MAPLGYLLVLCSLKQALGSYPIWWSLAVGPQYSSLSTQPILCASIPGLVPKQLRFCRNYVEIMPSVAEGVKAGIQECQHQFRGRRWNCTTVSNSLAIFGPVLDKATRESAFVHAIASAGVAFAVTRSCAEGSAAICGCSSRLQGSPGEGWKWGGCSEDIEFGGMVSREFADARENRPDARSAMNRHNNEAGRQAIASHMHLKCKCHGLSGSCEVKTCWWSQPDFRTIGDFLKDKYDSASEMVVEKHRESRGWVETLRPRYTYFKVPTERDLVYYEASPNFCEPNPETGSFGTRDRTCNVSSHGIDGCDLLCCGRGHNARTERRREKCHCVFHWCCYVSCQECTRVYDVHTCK
Chain of Peroxisome proliferator-activated receptor gamma/Nuclear receptor coactivator 2 (P37231 whole entry): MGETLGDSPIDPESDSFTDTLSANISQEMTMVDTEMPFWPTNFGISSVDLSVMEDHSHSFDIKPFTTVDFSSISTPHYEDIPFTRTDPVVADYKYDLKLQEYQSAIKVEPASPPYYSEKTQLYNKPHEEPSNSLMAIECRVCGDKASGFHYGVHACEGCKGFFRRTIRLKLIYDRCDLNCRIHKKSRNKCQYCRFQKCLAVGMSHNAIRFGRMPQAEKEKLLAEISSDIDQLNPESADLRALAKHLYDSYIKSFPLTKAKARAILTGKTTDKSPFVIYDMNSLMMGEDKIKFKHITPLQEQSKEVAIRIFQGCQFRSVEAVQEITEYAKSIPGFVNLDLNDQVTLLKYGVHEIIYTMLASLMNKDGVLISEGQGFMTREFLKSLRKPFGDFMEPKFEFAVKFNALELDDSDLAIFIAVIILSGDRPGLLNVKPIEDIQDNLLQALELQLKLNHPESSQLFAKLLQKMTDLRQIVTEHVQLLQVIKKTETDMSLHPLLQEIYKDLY
Chain of Peroxisome proliferator-activated receptor gamma/Nuclear receptor coactivator 2 (Q15596 whole entry, further chain): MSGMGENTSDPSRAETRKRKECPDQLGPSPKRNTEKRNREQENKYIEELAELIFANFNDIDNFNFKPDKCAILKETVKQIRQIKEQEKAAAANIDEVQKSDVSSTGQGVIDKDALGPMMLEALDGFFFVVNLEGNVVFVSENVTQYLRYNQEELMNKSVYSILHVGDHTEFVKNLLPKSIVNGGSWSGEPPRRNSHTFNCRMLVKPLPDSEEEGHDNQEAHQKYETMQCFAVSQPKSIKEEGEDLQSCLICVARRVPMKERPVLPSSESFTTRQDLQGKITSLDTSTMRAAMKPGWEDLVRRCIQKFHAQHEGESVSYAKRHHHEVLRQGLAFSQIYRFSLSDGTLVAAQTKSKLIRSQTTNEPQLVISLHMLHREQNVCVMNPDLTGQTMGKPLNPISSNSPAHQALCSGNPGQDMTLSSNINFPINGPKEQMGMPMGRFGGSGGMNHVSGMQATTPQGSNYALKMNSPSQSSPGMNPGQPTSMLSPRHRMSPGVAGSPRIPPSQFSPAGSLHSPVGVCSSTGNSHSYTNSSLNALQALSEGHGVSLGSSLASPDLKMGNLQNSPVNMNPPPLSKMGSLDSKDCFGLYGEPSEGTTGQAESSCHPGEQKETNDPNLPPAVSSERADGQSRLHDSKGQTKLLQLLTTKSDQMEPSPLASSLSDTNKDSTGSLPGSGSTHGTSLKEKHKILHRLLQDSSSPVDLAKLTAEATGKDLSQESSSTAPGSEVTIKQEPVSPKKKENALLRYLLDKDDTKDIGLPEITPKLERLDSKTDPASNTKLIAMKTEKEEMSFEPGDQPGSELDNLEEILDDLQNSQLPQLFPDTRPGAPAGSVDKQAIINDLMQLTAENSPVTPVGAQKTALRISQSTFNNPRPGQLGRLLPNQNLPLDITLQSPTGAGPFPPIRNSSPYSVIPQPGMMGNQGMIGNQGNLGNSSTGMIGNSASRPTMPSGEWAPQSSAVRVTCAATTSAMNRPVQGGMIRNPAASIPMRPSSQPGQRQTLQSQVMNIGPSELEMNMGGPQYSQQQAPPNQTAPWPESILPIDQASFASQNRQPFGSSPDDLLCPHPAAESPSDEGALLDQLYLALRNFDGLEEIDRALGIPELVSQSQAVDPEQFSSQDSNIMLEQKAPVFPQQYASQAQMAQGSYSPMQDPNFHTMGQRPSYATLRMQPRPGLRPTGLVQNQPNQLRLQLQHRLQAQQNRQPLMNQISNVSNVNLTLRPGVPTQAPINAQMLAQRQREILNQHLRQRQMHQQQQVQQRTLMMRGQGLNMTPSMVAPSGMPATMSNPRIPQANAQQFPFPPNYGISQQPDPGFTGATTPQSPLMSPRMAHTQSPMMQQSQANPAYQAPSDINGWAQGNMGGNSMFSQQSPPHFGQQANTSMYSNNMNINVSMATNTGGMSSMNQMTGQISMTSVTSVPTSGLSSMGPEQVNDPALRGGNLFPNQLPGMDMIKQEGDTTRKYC
Chain of Peroxisome proliferator-activated receptor gamma/Nuclear receptor coactivator 1 (P37231 whole entry): as the sequence (P37231 whole entry) above
Chain of Peroxisome proliferator-activated receptor gamma/Nuclear receptor coactivator 1 (Q15788 whole entry, further chain): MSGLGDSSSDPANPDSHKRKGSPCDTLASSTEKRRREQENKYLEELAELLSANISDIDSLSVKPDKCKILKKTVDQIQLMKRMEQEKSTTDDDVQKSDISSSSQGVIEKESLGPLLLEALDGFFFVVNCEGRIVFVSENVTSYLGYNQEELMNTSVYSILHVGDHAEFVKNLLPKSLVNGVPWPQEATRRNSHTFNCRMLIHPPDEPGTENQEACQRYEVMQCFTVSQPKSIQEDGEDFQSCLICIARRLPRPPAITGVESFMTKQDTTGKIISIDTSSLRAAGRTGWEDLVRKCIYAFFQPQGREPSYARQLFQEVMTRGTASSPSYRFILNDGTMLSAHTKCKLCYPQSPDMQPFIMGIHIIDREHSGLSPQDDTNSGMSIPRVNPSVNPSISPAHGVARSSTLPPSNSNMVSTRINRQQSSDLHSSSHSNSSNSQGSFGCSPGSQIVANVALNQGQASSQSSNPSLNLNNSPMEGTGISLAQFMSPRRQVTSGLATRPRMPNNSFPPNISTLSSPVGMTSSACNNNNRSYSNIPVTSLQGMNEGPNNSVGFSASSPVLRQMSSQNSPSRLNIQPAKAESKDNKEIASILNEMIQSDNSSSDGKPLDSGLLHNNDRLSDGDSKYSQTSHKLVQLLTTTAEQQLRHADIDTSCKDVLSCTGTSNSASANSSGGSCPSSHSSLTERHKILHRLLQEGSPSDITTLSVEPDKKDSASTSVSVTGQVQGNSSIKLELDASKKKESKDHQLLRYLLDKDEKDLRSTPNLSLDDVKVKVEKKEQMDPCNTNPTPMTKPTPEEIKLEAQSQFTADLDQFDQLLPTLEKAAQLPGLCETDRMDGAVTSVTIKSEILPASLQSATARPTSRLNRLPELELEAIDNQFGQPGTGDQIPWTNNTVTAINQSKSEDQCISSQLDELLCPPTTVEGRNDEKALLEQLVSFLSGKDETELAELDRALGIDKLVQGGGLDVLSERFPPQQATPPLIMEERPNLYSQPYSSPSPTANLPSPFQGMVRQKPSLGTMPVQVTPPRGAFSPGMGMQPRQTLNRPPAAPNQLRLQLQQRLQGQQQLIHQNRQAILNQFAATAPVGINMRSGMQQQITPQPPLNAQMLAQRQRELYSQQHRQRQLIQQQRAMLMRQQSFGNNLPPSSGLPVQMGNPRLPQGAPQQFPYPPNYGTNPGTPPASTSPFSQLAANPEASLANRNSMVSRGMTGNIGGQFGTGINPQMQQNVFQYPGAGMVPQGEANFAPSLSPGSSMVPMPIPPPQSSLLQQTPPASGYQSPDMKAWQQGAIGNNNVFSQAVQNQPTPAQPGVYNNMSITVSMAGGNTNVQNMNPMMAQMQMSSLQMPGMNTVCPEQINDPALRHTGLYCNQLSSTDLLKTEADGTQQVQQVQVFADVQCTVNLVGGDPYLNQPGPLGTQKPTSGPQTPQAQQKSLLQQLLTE

CCCCc1ccc(Nc2ncccc2C#N)cc1
IC50 [1]: 17.2 µM (active)
IC50 (Caspase-3 [2]): 21.3 µM (active)
IC50 [3]: 33.1 µM (active)

Cc1nn(-c2ccccc2)c(Cl)c1/C=C/C(=O)c1ccc(O)cc1
EC50 [4]: > 53 µM (inactive)
EC50 [5]: 18.9 µM (active)
IC50 [6]: > 47.1 µM (inactive)
EC50 [7]: 1.1 µM (active)
EC50 [8]: > 180 µM (inactive)
EC50 [9]: > 150 µM (inactive)

COC(=O)c1sccc1NC(=O)CCC1CCCCC1
IC50 [1]: 62.8 µM (active)
IC50 (Caspase-3 [2]): 27.9 µM (active)
IC50 [3]: > 100 µM (inactive)

CCOC(=O)CSc1c(-c2cccs2)[nH]c2ccccc12
EC50 [10]: 13.2 µM (inactive)
IC50 (Protein Wnt-3a): 17 µM (active)
EC50 [11]: 53.8 µM (not active)
EC50 [12]: 13.8 µM (not active)

CN(/N=C/c1c[nH]c2ccccc12)c1cnn(-c2ccc(F)c(Cl)c2)c(=O)c1Cl
EC50 (cells [13]): 55.6 µM (active)
IC50 [14]: > 99 µM (inactive)
IC50 [15]: > 99 µM (inactive)
IC50 [16]: > 99 µM (inactive)
IC50 (Caspase-3 [17]): > 99 µM (inactive)
EC50 (cells [18]): > 350 µM (not active)

COc1cccc(-c2cnc3c(NC=O)cc(-c4ccc(O)c(OC)c4)cn23)c1
IC50 (H9c2): > 79 µM (inactive)
EC50 (Melanocortin receptor 4): > 89.2 µM (inactive)
